Source: patent US12194033B2, “Glycine receptor modulators and methods of use” (University of Pittsburgh—Of the Commonwealth System of …, priority 2017, dated 2025)
Changes are numbered by the printed parent chain.

How the values were obtained:
C57Bl/6J mice = experiment: Hargreaves test in C57Bl/6J mice; assay type: in vivo
Protocol: In vivo mouse behavior tests validated the analgesic action of the representative compounds in response to inflammation. Responses of C57Bl/6J mice to the Hargreaves test (Pain, 32:77-88, 1988) were assessed pre- and post-application of compound 1 alone (white circles, application time=0 hours). […] Error bars designate the standard error of the mean (n≥4).

CB2 = target: T1, CB2 (Homo sapiens, UniProt P34972); experiment: PRESTO-TANGO functional assay CB2; assay type: cell-based; details: against positive controls, n=3
T1 construct: expressed in transfected cells
Protocol: (§1) The specificity of compound 1 (MJPY1) to act only on glycine receptors was determined. No cross reactivity with other commonly known receptors was detected (FIG. 16 and Table 2). […] Activity is reported in relative luminescence units (RLU) as mean and SEM (n=3).

5-HT3R = target: T2, 5-HT3R (Homo sapiens, UniProt P46098); experiment: Radioligand binding assay, off-target profiling; details: 10 M MJPY1, mean, n = 4
T2 sequence (P46098 24-478): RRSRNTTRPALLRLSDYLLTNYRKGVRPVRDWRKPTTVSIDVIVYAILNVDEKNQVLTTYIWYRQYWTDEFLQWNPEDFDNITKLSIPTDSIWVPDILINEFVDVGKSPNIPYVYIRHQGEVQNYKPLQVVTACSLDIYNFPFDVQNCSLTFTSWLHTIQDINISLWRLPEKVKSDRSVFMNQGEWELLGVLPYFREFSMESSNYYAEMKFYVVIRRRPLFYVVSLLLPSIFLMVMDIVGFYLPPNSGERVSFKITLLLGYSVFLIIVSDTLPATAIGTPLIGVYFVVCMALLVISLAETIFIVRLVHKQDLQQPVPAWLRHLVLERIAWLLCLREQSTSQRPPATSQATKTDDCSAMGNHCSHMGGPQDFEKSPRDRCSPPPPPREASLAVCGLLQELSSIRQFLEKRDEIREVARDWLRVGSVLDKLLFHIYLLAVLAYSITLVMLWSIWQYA

[1] = test system: chimera ELIC-α3GlyR containing the α3GlyR TMD; experiment: Electrophysiology on Xenopus laevis oocytes, chimera; assay type: cell-based; details: EC2 agonist, 10 μM compound
Protocol: (§2) MJPY1 potentiates α3GlyR through binding to the THC-binding site near S296 in the transmembrane domain (TMD). Like α3GlyR, but unlike ELIC, the chimera ELIC-α3GlyR containing the α3GlyR TMD is potentiated by MJPY1. The S296A mutation in α3GlyR abolishes compound 1 (MJPY1)'s potentiation. Data were recorded at EC2 agonist for the indicated channels and are reported as the ratio of currents in the presence (I) and absence (Io) of 10 μM compound 1 (MJPY1). Error bars represent SEM (n≥4 oocytes).

human α3GlyR = target: T3, human α3GlyR (Homo sapiens, UniProt O75311); experiment: In vitro functional electrophysiology in Xenopus laevis oocytes; assay type: cell-based
T3 construct: expressed in transfected cells; host or cells: Xenopus laevis oocytes
T3 sequence (O75311 34-464): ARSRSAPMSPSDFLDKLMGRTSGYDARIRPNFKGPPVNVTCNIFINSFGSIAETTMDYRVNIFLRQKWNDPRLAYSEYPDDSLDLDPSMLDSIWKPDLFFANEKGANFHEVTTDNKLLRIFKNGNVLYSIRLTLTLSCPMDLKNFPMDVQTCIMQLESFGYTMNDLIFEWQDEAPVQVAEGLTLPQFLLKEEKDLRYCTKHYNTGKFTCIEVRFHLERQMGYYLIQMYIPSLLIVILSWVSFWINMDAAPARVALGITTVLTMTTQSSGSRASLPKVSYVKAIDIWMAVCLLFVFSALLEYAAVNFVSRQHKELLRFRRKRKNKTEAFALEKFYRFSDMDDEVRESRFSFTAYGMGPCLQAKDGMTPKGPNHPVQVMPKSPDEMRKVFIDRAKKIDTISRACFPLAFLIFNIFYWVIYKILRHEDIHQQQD
Protocol: I/Io is calculated as the ratio of the current measured in the presence (I) and absence (Io) of compound 1 or THC at the indicated concentrations. Error bars designate the standard error of the mean (n≥4).
FIGS. 2A and 2B are bar graphs showing the effect of compound 1 on modulation of human glycine receptor subtypes (α1GlyR, α3GlyR, α1βGlyR, and α3βGlyR) expressed in Xenopus laevis oocytes activated by 2% (FIG. 2A) and 20% (FIG. 2B) maximal effective concentration of glycine. I/Io was calculated as the ratio of the current measured in the presence (I) and absence (Io) of 10 μM compound 1. Error bars designate the standard error of the mean (n≥4).
The compounds disclosed in Table 1 were assessed for in vitro modulation of human GlyRs. […] The assessed compounds were compounds 1 (3A), 2 (3B), 3 (3C), 4 (3D), 5 (3E), 6 (3F), 7 (3G), and 8 (3H). I/Io was calculated as the ratio of the current measured in the presence (I) and absence (Io) of 10 μM of the indicated compound. […]
MJPY1 potentiates α3GlyR through binding to the THC-binding site near S296 in the transmembrane domain (TMD). […] Data were recorded at EC2 agonist for the indicated channels and are reported as the ratio of currents in the presence (I) and absence (Io) of 10 μM compound 1 (MJPY1). […]

CB1 = target: T4, CB1 (Homo sapiens, UniProt P21554); experiment: PRESTO-TANGO functional assay CB1; assay type: cell-based; details: against positive controls, n=3
T4 construct: expressed in transfected cells
Protocol: as §1

S296A mutation in α3GlyR = target: T5, S296A mutation in α3GlyR (Homo sapiens, UniProt O75311, S329A); experiment: Electrophysiology on Xenopus laevis oocytes, S296A mutant; assay type: cell-based; details: EC2 agonist, 10 μM compound
T5 construct: expressed in transfected cells; host or cells: Xenopus laevis oocytes
T5 sequence (O75311 34-464 S329A): T3 sequence (O75311 34-464) with S296A
Protocol: as §2

MOR = MOR (Homo sapiens, UniProt P35372); experiment: Radioligand binding assay, off-target profiling; details: 10 M MJPY1, mean, n = 4
DOR = DOR (Homo sapiens, UniProt P41143); experiment: Radioligand binding assay, off-target profiling; details: 10 M MJPY1, mean, n = 4
DOR, sequence (P41143 whole entry): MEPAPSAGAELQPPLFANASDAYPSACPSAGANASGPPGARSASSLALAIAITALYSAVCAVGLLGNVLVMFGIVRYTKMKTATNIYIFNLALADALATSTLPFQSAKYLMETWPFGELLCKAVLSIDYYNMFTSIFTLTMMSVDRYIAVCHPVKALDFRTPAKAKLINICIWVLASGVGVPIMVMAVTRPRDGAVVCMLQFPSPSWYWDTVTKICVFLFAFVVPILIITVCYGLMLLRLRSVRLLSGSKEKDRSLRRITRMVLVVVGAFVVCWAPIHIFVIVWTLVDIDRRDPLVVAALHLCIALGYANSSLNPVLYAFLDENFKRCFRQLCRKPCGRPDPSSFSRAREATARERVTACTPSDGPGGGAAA

T4 sequence (P21554 whole entry): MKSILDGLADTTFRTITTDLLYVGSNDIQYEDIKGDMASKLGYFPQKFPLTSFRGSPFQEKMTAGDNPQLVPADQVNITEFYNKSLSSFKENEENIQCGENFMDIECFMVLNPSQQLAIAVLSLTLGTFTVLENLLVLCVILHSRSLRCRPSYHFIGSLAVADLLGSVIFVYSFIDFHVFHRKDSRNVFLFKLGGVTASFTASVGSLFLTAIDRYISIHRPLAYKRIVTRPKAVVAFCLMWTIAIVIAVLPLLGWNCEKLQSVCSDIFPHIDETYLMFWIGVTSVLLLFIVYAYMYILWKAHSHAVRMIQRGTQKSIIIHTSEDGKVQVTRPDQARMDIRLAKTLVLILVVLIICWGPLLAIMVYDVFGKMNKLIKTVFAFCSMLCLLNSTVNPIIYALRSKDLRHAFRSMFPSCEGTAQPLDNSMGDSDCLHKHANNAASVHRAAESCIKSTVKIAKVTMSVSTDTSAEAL
MOR, sequence (P35372 whole entry): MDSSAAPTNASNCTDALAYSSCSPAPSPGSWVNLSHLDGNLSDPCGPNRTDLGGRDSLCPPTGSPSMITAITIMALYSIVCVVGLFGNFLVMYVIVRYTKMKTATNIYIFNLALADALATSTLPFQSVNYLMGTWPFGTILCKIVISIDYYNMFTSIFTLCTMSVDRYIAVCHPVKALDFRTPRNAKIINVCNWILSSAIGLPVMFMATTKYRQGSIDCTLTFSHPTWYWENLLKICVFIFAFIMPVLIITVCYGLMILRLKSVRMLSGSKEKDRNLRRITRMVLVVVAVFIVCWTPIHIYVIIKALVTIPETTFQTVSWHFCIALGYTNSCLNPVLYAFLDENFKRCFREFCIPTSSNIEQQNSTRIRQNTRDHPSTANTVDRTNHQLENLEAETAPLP
T1 sequence (P34972 whole entry): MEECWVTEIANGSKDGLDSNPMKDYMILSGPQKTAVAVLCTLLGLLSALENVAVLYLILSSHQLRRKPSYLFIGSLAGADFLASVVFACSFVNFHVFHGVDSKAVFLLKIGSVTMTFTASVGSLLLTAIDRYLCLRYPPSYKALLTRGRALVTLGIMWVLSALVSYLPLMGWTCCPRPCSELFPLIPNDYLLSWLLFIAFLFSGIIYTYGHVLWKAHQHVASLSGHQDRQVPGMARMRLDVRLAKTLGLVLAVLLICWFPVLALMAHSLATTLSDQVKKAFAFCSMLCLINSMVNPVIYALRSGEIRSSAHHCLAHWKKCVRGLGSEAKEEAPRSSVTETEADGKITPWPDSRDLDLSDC

NC(=O)c1cccc(CNC(=O)c2ccc3c4c(cccc24)CC3)c1 [compound 1, N-[(3-carbamoylphenyl)-methyl]-1,2-dihydroacenaphthylene-5-carboxamide]
response time for paw withdrawal (C57Bl/6J mice; maximum CFA-induced hyperalgesic conditions (24 hours post CFA)): increase in response time
response time for paw withdrawal (C57Bl/6J mice; normal nociceptive conditions): no significant effect
agonist or antagonist activity on CB2 (RLU) (CB2): no agonist (top) or antagonist (bottom) activity
% Inhibition 5-HT3R (5-HT3R): −5.7%
potentiation of chimera ELIC-α3GlyR (I/Io) [1]: potentiated
potentiation of α3GlyR (I/Io) (human α3GlyR; EC2 agonist, 10 μM compound): potentiates
modulation of human GlyRs (I/Io) (human α3GlyR; Xenopus laevis oocytes, 2% maximal effective concentration of glycine): modulated
agonist or antagonist activity on CB1 (RLU) (CB1): no agonist (top) or antagonist (bottom) activity
potentiation of α3GlyR S296A (I/Io) (S296A mutation in α3GlyR): abolishes
% Inhibition MOR (MOR): 20.6%
% Inhibition DOR (DOR): 7.1%
